Measured values from PubChem BioAssay (NCI).
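A five-concentration, 48-hour dose response in 96-well plates underlies each endpoint, interpolated linearly between surrounding concentrations. Abbreviation: GI50, concentration required for 50% inhibition of growth. TGI: total growth inhibition.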

Key:
Test in all cases: NCI anticancer screen, dose series, 48 h
[1] = tested on: TK-10 renal
[2] = tested on: MCF7 breast
[3] = tested on: ACHN renal
[4] = tested on: SK-MEL-2 melanoma
[5] = tested on: SF-268 CNS
[6] = tested on: RPMI-8226 leukemia
[7] = tested on: LOX IMVI melanoma
[8] = tested on: SR leukemia
[9] = tested on: M14 melanoma
[10] = tested on: RXF 393 renal

Row | Compound | TGI [1] [µM] | TGI [2] [µM] | TGI [3] [µM] | TGI [4] [µM] | TGI [5] [µM] | TGI [6] [µM] | TGI [7] [µM] | TGI [8] [µM] | TGI [9] [µM] | TGI [10] [µM] | GI50 [1] [µM] | GI50 [2] [µM] | GI50 [3] [µM] | GI50 [10] [µM] | GI50 [4] [µM] | GI50 [5] [µM] | GI50 [6] [µM] | GI50 [7] [µM] | GI50 [9] [µM]
1 | CSc1nc(NC(C)C)c2c(n1)Sc1nc3ccccc3n1N=C2 | 36.8 | 60 | 20.9 | 47.3 | > 100 | > 100 | > 100 | > 100 | > 100 |  |  |  |  |  |  |  |  |  | 
2 | O=C1C=CC=C/C1=C1\N=C(c2ccccc2OCC(=O)c2ccccc2)SS1 | > 100 | > 100 | > 100 | > 100 | > 100 | > 100 | > 100 |  | > 100 | > 100 |  |  |  |  |  |  |  |  | 
3 | CO[C@H]1SC[C@H](OC(C)=O)[C@H](OC(C)=O)[C@H]1OC(C)=O | > 100 | > 100 | > 100 | > 100 | > 100 | > 100 | > 100 | > 100 | > 100 |  |  |  |  |  |  |  |  |  | 
4 | C=C1OC(c2ccccc2NC)=NC12CCCCC2 | > 100 | > 100 | > 100 |  | > 100 |  | > 100 |  | > 100 | > 100 |  |  |  |  |  |  |  |  | 
5 | C=C(C)OCOCCOC | > 100 | > 100 | > 100 | > 100 | > 100 | > 100 | > 100 | > 100 | > 100 |  |  |  |  |  |  |  |  |  | 
6 | CC[C@H](Nc1nc(C)nc(N)c1C#N)c1nc2cccc(NCc3ccc(C(=O)NO)cc3)c2c(=O)n1-c1ccccc1 | 7.86 | 5.89 | 3.69 | 5.51 | 3.53 | 5.26 | 3.04 |  | 5.85 | 2.18 | 2.43 | 2.07 | 1.63 | 0.866 | 2.07 | 1.63 | 2.03 | 1.65 | 2.28
7 | COc1ccc(/C=c2\s/c(=C3/SC(=S)N(c4ccccc4)C3=O)n(-c3ccccc3)c2=O)cc1 | 59.2 | > 100 | 28.8 |  | 26.9 | > 100 | > 100 | 31.8 | > 100 |  |  |  |  |  |  |  |  |  | 
8 | CC1=NN(c2nc(N)nc(-c3sccc3N)n2)C(C)(C)C1 | > 100 | > 100 | > 100 |  | > 100 | 70.9 | > 100 |  | > 100 |  |  |  |  |  |  |  |  |  | 
9 | O=S(=O)(O)c1ccc(N=Nc2ccc(N=Nc3ccc(/C=C/c4ccc(N=[N+]([O-])c5ccc(/C=C/c6ccc(N=Nc7ccc(N=Nc8ccc(S(=O)(=O)O)cc8)cc7)cc6S(=O)(=O)O)c(S(=O)(=O)O)c5)cc4S(=O)(=O)O)c(S(=O)(=O)O)c3)cc2)cc1 |  | > 100 |  | > 100 | > 100 | > 100 | > 100 |  |  | > 100 |  |  |  |  |  |  |  |  | 
10 | Cc1cc(C)c2c(=O)cc(-c3cccc(F)c3)[nH]c2n1 | > 100 | 2.16 | > 100 |  | > 93.3 | > 55.1 | 22 | 0.122 | > 100 |  |  |  |  |  |  |  |  |  | 
11 | CCOc1ccc(Nc2nc(N)nc(N)c2N)cc1 | > 100 | 38.1 | > 100 | > 100 | 31.1 | 38.1 | > 100 | 59.3 | > 100 |  |  |  |  |  |  |  |  |  | 
12 | Cc1cc2ncn(C3CCCCO3)c2cc1C (configuration not stated) | > 100 | > 100 | > 100 | > 100 | > 100 | > 100 | > 100 |  | > 100 | > 100 |  |  |  |  |  |  |  |  | 
13 | C=C1N(C=O)C(C)(C)N(O)C1(C)C | > 100 | > 100 | > 100 | > 100 | > 100 | > 100 | > 100 |  | > 100 | > 100 |  |  |  |  |  |  |  |  | 
14 | Cc1cc(S(=O)(=O)/N=C(/C(=C=[N-])C#N)[n+]2ccc(N(C)C)cc2)c(SCC(=O)O)cc1Cl | > 100 | > 100 | > 100 | > 100 | > 100 | > 100 |  |  | > 100 | > 100 |  |  |  |  |  |  |  |  | 
15 | Cc1cc(C)nc(NS(=O)(=O)c2ccc(Nc3c4ccccc4nc4c(C(=O)N5CCN(CCOS(C)(=O)=O)CC5)cccc34)cc2)n1 | > 100 |  | > 100 | > 100 | > 100 | > 100 |  |  | > 100 | > 100 |  |  |  |  |  |  |  |  | 
16 | S=C(N/N=C\C(=N/NC(=S)N1CCCCC1)c1ccccc1)N1CCCCC1 | 3.25 | > 22.4 | 3.11 |  | 3.72 | > 100 | > 100 |  | 3.61 | 3.33 |  |  |  |  |  |  |  |  | 
17 | COc1cc(S(=O)(=O)Nc2ccc(C(=O)/C=C/c3ccc(O)cc3)cc2)ccc1F | > 100 | > 100 | > 100 |  | > 100 | > 100 | > 100 |  |  |  | 47 | > 100 | > 100 |  |  | > 100 | 58.5 | > 100 | 
